Measured values reported in PubChem BioAssay AID256 (DTP/NCI, 2004).
Values joined by “and” are separate entries in the source; they are usually repeats but may differ in a detail not shown here. Identical values can stand only once. Inconclusive results and toxic doses are left out.

Test system: CD2F1 mice, L1210 leukemia ip, survival T/C
Assay: NCI In Vivo Anticancer Drug Screen. Data for tumor model L1210 Leukemia (intraperitoneal) in CD2F1 (CDF1) mice
Conditions: higher = longer survival
Method in brief: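 Implant tumor; dose compound or vehicle; measure endpoint in both groups; report treated divided by control.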

[1] = endpoint: mean survival time, dose: 100.0 mg/kg/injection, schedule: Q01DX001 (ip), vehicle: saline with Tween-80
[2] = endpoint: mean survival time, dose: 100.0 mg/kg/injection, schedule: Q04DX002 (ip), vehicle: saline with Tween-80
[3] = endpoint: mean survival time, dose: 200.0 mg/kg/injection, schedule: Q01DX001 (ip), vehicle: saline with Tween-80
[4] = endpoint: mean survival time, dose: 200.0 mg/kg/injection, schedule: Q04DX002 (ip), vehicle: saline with Tween-80
[5] = endpoint: mean survival time, dose: 400.0 mg/kg/injection, schedule: Q01DX001 (ip), vehicle: saline with Tween-80
[6] = endpoint: mean survival time, dose: 400.0 mg/kg/injection, schedule: Q04DX002 (ip), vehicle: saline with Tween-80
[7] = endpoint: mean survival time, dose: 100.0 mg/kg/injection, schedule: Q01DX009 (ip), vehicle: saline with Tween-80
[8] = endpoint: mean survival time, dose: 100.0 mg/kg/injection, schedule: Q04DX003 (ip), vehicle: saline with Tween-80
[9] = endpoint: mean survival time, dose: 200.0 mg/kg/injection, schedule: Q01DX009 (ip), vehicle: saline with Tween-80
[10] = endpoint: mean survival time, dose: 200.0 mg/kg/injection, schedule: Q04DX003 (ip), vehicle: saline with Tween-80
[11] = endpoint: mean survival time, dose: 400.0 mg/kg/injection, schedule: Q01DX009 (ip), vehicle: saline with Tween-80
[12] = endpoint: mean survival time, dose: 400.0 mg/kg/injection, schedule: Q04DX003 (ip), vehicle: saline with Tween-80
[13] = endpoint: mean survival time, dose: 50.0 mg/kg/injection, schedule: Q01DX009 (ip), vehicle: saline with Tween-80
[14] = endpoint: mean survival time, dose: 25.0 mg/kg/injection, schedule: Q01DX009 (ip), vehicle: saline with Tween-80
[15] = endpoint: mean survival time, dose: 50.0 mg/kg/injection, schedule: Q01DX009 (ip), vehicle: Klucel (hydroxypropylcellulose) (HPC)
[16] = endpoint: mean survival time, dose: 100.0 mg/kg/injection, schedule: Q01DX009 (ip), vehicle: Klucel (hydroxypropylcellulose) (HPC)

## CCN(CC)n1c(=O)[nH]n(CC)c1=O
[1]
  T/C: 101 % of control
[2]
  T/C: 101 % of control
[3]
  T/C: 97 % of control
[4]
  T/C: 93 % of control
[5]
  T/C: 100 % of control
[6]
  T/C: 101 % of control

## CC(C)c1cc2c(cc1O)C1(C)CCCC(C)(C(=O)O)C1CC2 (centres undefined)
[7]
  T/C: 98 % of control
[8]
  T/C: 95 % of control
[9]
  T/C: 102 % of control
[10]
  T/C: 96 % of control
[11]
  T/C: 101 % of control
[12]
  T/C: 94 % of control

## Nc1cccc(CCCCc2cccc(S(=O)(=O)F)c2)c1
[13]
  T/C: 97 % of control
[7]
  T/C: 95 % of control
[8]
  T/C: 100 % of control
[9]
  T/C: 97 % of control
[10]
  T/C: 95 % of control

## Nc1ccccc1N
[14]
  T/C: 95 % of control
[9]
  T/C: 93 % of control

## CCC(=O)[O][Bi]([c]1ccccc1)[c]1ccccc1
endpoint: median survival time, dose: 3.12 mg/kg/injection, schedule: Q01DX009 (ip), vehicle: Klucel (hydroxypropylcellulose) (HPC)
  T/C: 108 % of control
endpoint: median survival time, dose: 6.25 mg/kg/injection, schedule: Q01DX009 (ip), vehicle: Klucel (hydroxypropylcellulose) (HPC)
  T/C: 108 % of control
endpoint: median survival time, dose: 12.5 mg/kg/injection, schedule: Q01DX009 (ip), vehicle: Klucel (hydroxypropylcellulose) (HPC)
  T/C: 103 % of control
endpoint: median survival time, dose: 25.0 mg/kg/injection, schedule: Q01DX009 (ip), vehicle: Klucel (hydroxypropylcellulose) (HPC)
  T/C: 112 % of control and 111 % of control

## CC(C)NCC(O)COc1ccc(O)c(O)c1 (centres undefined)
endpoint: median survival time, dose: 12.5 mg/kg/injection, schedule: Q01DX009 (ip), vehicle: saline
  T/C: 101 % of control
endpoint: median survival time, dose: 25.0 mg/kg/injection, schedule: Q01DX009 (ip), vehicle: saline
  T/C: 97 % of control and 101 % of control
endpoint: median survival time, dose: 50.0 mg/kg/injection, schedule: Q01DX009 (ip), vehicle: saline
  T/C: 98 % of control and 107 % of control
endpoint: median survival time, dose: 100.0 mg/kg/injection, schedule: Q01DX009 (ip), vehicle: saline
  T/C: 107 % of control and 112 % of control
endpoint: median survival time, dose: 200.0 mg/kg/injection, schedule: Q01DX009 (ip), vehicle: saline
  T/C: 90 % of control

## O=S(=O)(O)O.[Pt].c1ccc([PH+](c2ccccc2)c2ccccc2)cc1.c1ccc([PH+](c2ccccc2)c2ccccc2)cc1.c1ccc([PH+](c2ccccc2)c2ccccc2)cc1
endpoint: mean survival time, dose: 3.12 mg/kg/injection, schedule: Q04DX003 (ip), vehicle: distilled water + Tween-80
  T/C: 102 % of control
endpoint: mean survival time, dose: 6.25 mg/kg/injection, schedule: Q04DX003 (ip), vehicle: distilled water + Tween-80
  T/C: 102 % of control
endpoint: mean survival time, dose: 12.5 mg/kg/injection, schedule: Q04DX003 (ip), vehicle: distilled water + Tween-80
  T/C: 105 % of control
endpoint: mean survival time, dose: 25.0 mg/kg/injection, schedule: Q04DX003 (ip), vehicle: distilled water + Tween-80
  T/C: 102 % of control

## CCOC(=N)CNC(=O)c1ccccc1
[2]
  T/C: 105 % of control
[4]
  T/C: 98 % of control
[6]
  T/C: 98 % of control

## CC(=O)OCC(OC(C)=O)C(OC(C)=O)C(OC(C)=O)C(S)S (centres undefined)
[8]
  T/C: 103 % of control
[10]
  T/C: 109 % of control
[12]
  T/C: 101 % of control

## O=C(O)CN(CC(=O)O)Cc1ccccc1
endpoint: mean survival time, dose: 100.0 mg/kg/injection, schedule: Q01DX001 (ip), vehicle: saline
  T/C: 103 % of control
endpoint: mean survival time, dose: 200.0 mg/kg/injection, schedule: Q01DX001 (ip), vehicle: saline
  T/C: 103 % of control
endpoint: mean survival time, dose: 400.0 mg/kg/injection, schedule: Q01DX001 (ip), vehicle: saline
  T/C: 103 % of control

## CCCCC(=O)O.[Pb]
endpoint: mean survival time, dose: 75.0 mg/kg/injection, schedule: Q01DX001 (ip), vehicle: steriod suspending solution
  T/C: 100 % of control
endpoint: mean survival time, dose: 150.0 mg/kg/injection, schedule: Q01DX001 (ip), vehicle: steriod suspending solution
  T/C: 104 % of control
endpoint: mean survival time, dose: 300.0 mg/kg/injection, schedule: Q01DX001 (ip), vehicle: steriod suspending solution
  T/C: 97 % of control

## CC(=O)OCC1OC(n2ncnc2CI)C(OC(C)=O)C(OC(C)=O)C1OC(C)=O (centres undefined)
endpoint: median survival time, dose: 12.5 mg/kg/injection, schedule: Q01DX005 (ip), vehicle: distilled water + Tween-80
  T/C: 105 % of control
endpoint: median survival time, dose: 25.0 mg/kg/injection, schedule: Q01DX005 (ip), vehicle: distilled water + Tween-80
  T/C: 105 % of control
endpoint: median survival time, dose: 50.0 mg/kg/injection, schedule: Q01DX005 (ip), vehicle: distilled water + Tween-80
  T/C: 96 % of control

## CO[C@@H](C=O)O[C@@H](C=O)CO
endpoint: mean survival time, dose: 70.0 mg/kg/injection, schedule: Q01DX001 (ip), vehicle: saline
  T/C: 121 % of control
endpoint: mean survival time, dose: 140.0 mg/kg/injection, schedule: Q01DX001 (ip), vehicle: saline
  T/C: 121 % of control

## COCCNc1ccc([N+](=O)[O-])cc1[N+](=O)[O-]
[1]
  T/C: 92 % of control
[7]
  T/C: 95 % of control
[3]
  T/C: 92 % of control
[9]
  T/C: 93 % of control
[5]
  T/C: 96 % of control
[11]
  T/C: 91 % of control

## CC1OC(OC2C(O)C(CO)OC(OC3C(C(=O)O)OC(OC4CCC5(C)C(CCC6(C)C5CC=C5C7CC(C)(C)C(O)C(O)C7(CO)C(O)CC56C)C4(C)C)C(OC4OC(CO)C(O)C(O)C4O)C3O)C2O)C(O)C(O)C1O (centres undefined)
endpoint: mean survival time, dose: 50.0 mg/kg/injection, schedule: Q04DX002 (ip), vehicle: saline with Tween-80
  T/C: 98 % of control
[2]
  T/C: 102 % of control
[4]
  T/C: 107 % of control

## CC(CN1CCCCC1)C(=O)c1ccc(-c2ccccc2)cc1 (centres undefined)
[14]
  T/C: 97 % of control
[13]
  T/C: 100 % of control
[7]
  T/C: 97 % of control

## CC(Cl)CN(CC(C)Cl)c1ccc2c(c1)Cc1cc(F)ccc1-2 (centres undefined)
[8]
  T/C: 98 % of control
[10]
  T/C: 96 % of control
[12]
  T/C: 100 % of control

## COc1cc(/C=N/NC(=O)CN(C)C)cc(OC)c1N(CCCl)CCCl
[15]
  T/C: 122 % of control
[16]
  T/C: 113 % of control

## Nc1cccc(CC(=O)Nc2cccc(S(=O)(=O)F)c2)c1
[1]
  T/C: 96 % of control
[3]
  T/C: 95 % of control
[5]
  T/C: 90 % of control

## Cc1ccc(S(=O)(=O)NC(Cc2ccccc2)C(=O)CCl)cc1 (centres undefined)
[13]
  T/C: 92 % of control
[7]
  T/C: 96 % of control
[9]
  T/C: 90 % of control

## CNC(CCNCCc1ccccc1)CNCCc1ccccc1 (centres undefined)
endpoint: mean survival time, dose: 75.0 mg/kg/injection, schedule: Q01DX001 (ip), vehicle: saline
  T/C: 97 % of control
endpoint: mean survival time, dose: 150.0 mg/kg/injection, schedule: Q01DX001 (ip), vehicle: saline
  T/C: 107 % of control

## COc1ccc(NC(=O)Nc2ccc(C(C)C)cc2)cc1
[8]
  T/C: 93 % of control
[10]
  T/C: 91 % of control
[12]
  T/C: 95 % of control

## O/N=C1\CCCCC\C1=N/O.O/N=C1\CCCCC\C1=N/O.[Pt]
endpoint: mean survival time, dose: 3.13 mg/kg/injection, schedule: Q04DX003 (ip), vehicle: dextrose
  T/C: 104 % of control
endpoint: mean survival time, dose: 6.25 mg/kg/injection, schedule: Q04DX003 (ip), vehicle: dextrose
  T/C: 108 % of control
endpoint: mean survival time, dose: 12.5 mg/kg/injection, schedule: Q04DX003 (ip), vehicle: dextrose
  T/C: 98 % of control
endpoint: mean survival time, dose: 25.0 mg/kg/injection, schedule: Q04DX003 (ip), vehicle: dextrose
  T/C: 98 % of control and 101 % of control
endpoint: mean survival time, dose: 50.0 mg/kg/injection, schedule: Q04DX003 (ip), vehicle: dextrose
  T/C: 95 % of control and 106 % of control
endpoint: mean survival time, dose: 100.0 mg/kg/injection, schedule: Q04DX003 (ip), vehicle: dextrose
  T/C: 103 % of control
endpoint: mean survival time, dose: 200.0 mg/kg/injection, schedule: Q04DX003 (ip), vehicle: dextrose
  T/C: 96 % of control and 98 % of control

## COc1ccc(C2C3CN(C4CCCCC4)C(=O)C3NN2C(C)=O)cc1 (centres undefined)
[7]
  T/C: 91 % of control
[9]
  T/C: 89 % of control
[11]
  T/C: 89 % of control

## N#CC1CNC(N)NC1N (centres undefined)
[15]
  T/C: 98 % of control
[16]
  T/C: 91 % of control
endpoint: mean survival time, dose: 200.0 mg/kg/injection, schedule: Q01DX009 (ip), vehicle: Klucel (hydroxypropylcellulose) (HPC)
  T/C: 98 % of control

## CC1CN1C(=O)NCCCCCCNC(=O)N1CC1C (centres undefined)
endpoint: mean survival time, dose: 0.31 mg/kg/injection, schedule: Q01DX009 (ip), vehicle: Klucel (hydroxypropylcellulose) (HPC)
  T/C: 89 % of control
endpoint: mean survival time, dose: 0.63 mg/kg/injection, schedule: Q01DX009 (ip), vehicle: Klucel (hydroxypropylcellulose) (HPC)
  T/C: 119 % of control and 101 % of control
endpoint: mean survival time, dose: 1.25 mg/kg/injection, schedule: Q01DX009 (ip), vehicle: Klucel (hydroxypropylcellulose) (HPC)
  T/C: 97 % of control
endpoint: mean survival time, dose: 2.5 mg/kg/injection, schedule: Q01DX001 (ip), vehicle: Klucel (hydroxypropylcellulose) (HPC)
  T/C: 98 % of control
endpoint: mean survival time, dose: 2.5 mg/kg/injection, schedule: Q01DX009 (ip), vehicle: Klucel (hydroxypropylcellulose) (HPC)
  T/C: 110 % of control
endpoint: mean survival time, dose: 5.0 mg/kg/injection, schedule: Q01DX001 (ip), vehicle: Klucel (hydroxypropylcellulose) (HPC)
  T/C: 94 % of control
endpoint: mean survival time, dose: 5.0 mg/kg/injection, schedule: Q01DX009 (ip), vehicle: Klucel (hydroxypropylcellulose) (HPC)
  T/C: 156 % of control
endpoint: mean survival time, dose: 10.0 mg/kg/injection, schedule: Q01DX001 (ip), vehicle: Klucel (hydroxypropylcellulose) (HPC)
  T/C: 100 % of control
endpoint: mean survival time, dose: 20.0 mg/kg/injection, schedule: Q01DX001 (ip), vehicle: Klucel (hydroxypropylcellulose) (HPC)
  T/C: 107 % of control
